According to publication PMC5431342, “Discovery of an enzyme and substrate selective inhibitor of ADAM10 using an exosite-binding glycosylated substrate” (Scientific Reports, 2016):
Where two headings read alike, the source gives them in different places.

What was measured:
ADAM17 = target: T1, ADAM17 (Homo sapiens, UniProt P78536); assay: ADAM17 glycosylated substrate uHTS/HTS assay; format: biochemical; details: original uHTS dose response, 10-point 1:3 dilutions starting at 70 µM
T1 construct: purchased R&D Systems 930-ADB
Method: Both assays followed the same general protocol. […] After 30 min incubation at RT, the reactions were started by addition of 2.5 µL of 2x solutions of glycosylated substrate (20 µM). Reactions were incubated at RT for 2 h, after which the fluorescence was measured using Perkin Elmer Viewlux multimode microplate imager (λexcitation = 360 nm, λemission = 460 nm). Final concentration of test compounds in assays was 7.0 µM.
The miniaturized 1536-well plate format ADAM10 and ADAM17 assays were used to screen a collection of ≈370,000 compounds (MLSMR library, provided by the NIH) on the automated Kalypsys/GNF platform at the Scripps Research Institute Molecular Screening Center (SRIMSC, Jupiter, FL. More details at http://hts.florida.scripps.edu/). […] Both uHTS campaigns were run separately but in a similar manner. Briefly, the first step was the primary screen of all MLSMR’s test compounds as singlicate against the ADAM10 or ADAM17 target at a final concentration of 7.0 μM. Next, compounds selected as primary hits were cherry-picked and retested in triplicate against the primary screen target and its anti-target (ADAM17 for the ADAM10 screening effort, and vice-versa) at the same final concentration of 7.0 μM. […] All data generated during this effort were uploaded to the SRIMSC’s institutional screening database (Assay Explorer, Symyx). Sample to background (S/B) ratios, as well as Z and Z′ values were calculated on a per-plate basis as described before. Curve fitting and resulting IC50 determinations were performed as previously reported.

ADAM10 = target: T2, ADAM10 (Homo sapiens, UniProt O14672); assay: ADAM10 kinetic assays, determination of inhibition type and mechanism; format: biochemical
T2 construct: purchased R&D Systems 936-AD
T2 sequence (O14672 214-748): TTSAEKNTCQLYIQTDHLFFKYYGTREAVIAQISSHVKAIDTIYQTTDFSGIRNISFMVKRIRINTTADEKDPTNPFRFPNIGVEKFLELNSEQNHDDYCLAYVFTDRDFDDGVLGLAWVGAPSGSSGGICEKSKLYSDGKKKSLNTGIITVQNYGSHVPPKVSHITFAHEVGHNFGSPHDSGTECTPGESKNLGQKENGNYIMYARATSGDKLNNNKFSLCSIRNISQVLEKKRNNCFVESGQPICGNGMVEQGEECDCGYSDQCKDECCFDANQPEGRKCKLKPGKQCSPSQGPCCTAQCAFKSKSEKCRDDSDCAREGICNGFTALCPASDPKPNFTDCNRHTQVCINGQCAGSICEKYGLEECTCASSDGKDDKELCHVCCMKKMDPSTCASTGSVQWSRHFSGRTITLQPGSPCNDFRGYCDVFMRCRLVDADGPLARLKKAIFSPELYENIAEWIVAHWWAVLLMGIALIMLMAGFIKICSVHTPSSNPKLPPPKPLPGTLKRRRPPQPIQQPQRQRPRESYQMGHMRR
Method: Since true affinity of time-dependent inhibitors cannot be determined by steady state approaches, in order to determine the true inhibition modality and true affinity of CID 3117694 we performed kinetic assays with the range of glycosylated substrate (0.5–5 [S]/KM) and inhibitor (1.56–50 µM) concentrations in quadruplicate. Reactions were allowed to run for 6 h. Progress curve data were fitted using a non-linear regression model for time-dependent inhibition (Equation 1) using MatLab software.
First, we performed the ADAM10 reaction with glycosylated substrate in the presence of […] CID 3117694 in kinetic format without pre-incubation. Obtained k obs values were plotted versus [I] to determine whether the inhibitor binding conforms to a 1- or 2-step mechanism (Fig. 4A). […] Future studies will address the exact location of this exosite.
In order to determine true inhibition modality and affinity of CID 3117694, kinetic assays were performed with the range of substrate (0.5–5 [S]/KM) and inhibitor concentrations (1.56–50 µM) in quadruplicate. Reactions were allowed to run for 6 h. Progress curve data were fitted using a non-linear regression model for time-dependent inhibition (Equation 1) using MatLab software. [P]=vst+vi−vs/kobs⁎[1−exp(−kobst)]
Obtained k obs values were plotted versus [I] to determine whether the inhibitor binding conforms to a 1- or 2-step mechanism.
To obtain true potency, Equation 3 was solved for K i and K i ′. Resulting ratio of Ki′/Ki termed α (alpha) was used to determine mechanism of inhibition. In order to confirm the true binding modality, k obs was plotted versus [S]/KM. app^Ki=[S]+KM/KM/Ki+[S]/Ki′

[1] = system: shedding of CXCL16 in A549 cells; assay: CXCL16 shedding inhibition (ELISA); format: cell-based, human
Method: A549 cells were seeded in 12-well plates and grown to confluency in DMEM supplemented with 10% FBS and 1% P/S. Subsequently, cells were starved serum-free for 4 h, incubated for 1 h with GI 254023X or CID 3117694 (concentrations as indicated) or DMSO (vehicle, 0.1%) and afterwards stimulated with 10 ng/mL TNF and 10 ng/mL IFN for 24 h or left untreated in the presence of inhibitors or DMSO. Supernatants (500 µL) were harvested and centrifuged for 10 min at 16100 g and 4 °C. […] of CXCL16 were measured using the DuoSet human CXCL16 Elisa Kit (R&D systems, Wiesbaden, Germany). Samples were stored at −80 °C and diluted 2-fold after careful thawing. The standard ranged from 0 to 25,000 pg/mL with a detection limit of 391 pg/mL. For detection of soluble syndecan-4, conditioned media (200 µL) were 2-fold diluted in blotting buffer (0.15 M NaCl buffered to pH 4.5 with 50 mM sodium acetate, and with 0.1% Triton X-100), and applied to cationic polyvinylidene difluoride-based membranes (Hybond-N, Amersham Biosciences, Freiburg, Germany) under vacuum in a dot blot apparatus (Amersham Biosciences). The membranes were blocked for 1 h with PBS-T supplemented with 1% bovine serum albumin and 3% milk powder. Human syndecan-4 was detected by incubating membranes overnight at 4 °C with mouse anti-syndecan-4 mAb (0.6 µg/mL) followed by incubation with POD-coupled goat anti-mouse Ab (27 ng/mL in PBS, Jackson Immunoresearch). Chemiluminescence was recorded and quantified using the luminescent image analyzer LAS3000 substrate after addition of ECL advanced substrate (Amersham Biosciences).

T1 sequence (P78536 215-824): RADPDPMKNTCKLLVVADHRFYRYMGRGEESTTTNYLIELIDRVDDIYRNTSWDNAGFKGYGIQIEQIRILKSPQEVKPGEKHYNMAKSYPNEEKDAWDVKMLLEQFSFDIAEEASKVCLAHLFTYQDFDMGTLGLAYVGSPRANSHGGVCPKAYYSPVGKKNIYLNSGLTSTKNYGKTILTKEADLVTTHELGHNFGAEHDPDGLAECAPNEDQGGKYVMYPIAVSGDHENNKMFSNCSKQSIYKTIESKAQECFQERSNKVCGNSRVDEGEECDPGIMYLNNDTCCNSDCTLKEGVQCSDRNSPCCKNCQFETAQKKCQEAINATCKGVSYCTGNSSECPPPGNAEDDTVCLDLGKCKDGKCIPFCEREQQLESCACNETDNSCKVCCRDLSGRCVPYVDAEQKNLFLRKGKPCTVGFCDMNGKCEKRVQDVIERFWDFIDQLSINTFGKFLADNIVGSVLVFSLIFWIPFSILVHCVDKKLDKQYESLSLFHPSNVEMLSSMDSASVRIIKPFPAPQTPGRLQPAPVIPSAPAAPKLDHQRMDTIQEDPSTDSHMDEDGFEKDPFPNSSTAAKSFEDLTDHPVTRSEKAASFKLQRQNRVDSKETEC

`COc1cccc(C(=O)NNC(=O)C(=O)Nc2ccc(C)c(Cl)c2)c1` [CID 3117694] was tested, and the IC50 (ADAM17) was over 70000 nM, the “ratio of Ki′/Ki, α (alpha)” value (ADAM10) was 21.7 and the Ki (ADAM10; apparent potency at initial velocity, hyperbolic two-step model, read-out: appKi) was 1360 ± 200 nM. The Ki (ADAM10; apparent potency at steady-state velocity, read-out: appKi*) was 330 ± 20 nM, the Ki (ADAM10; binding affinity for enzyme-substrate complex, read-out: Ki) was 19000 nM and the Ki (ADAM10; binding affinity for free enzyme, read-out: Ki) was 883 nM. The inhibition modality (ADAM10; kobs versus [S]/KM and α) was “competitive inhibitor”, the “inhibition of cytokine-inducible shedding of CXCL16” value ([1]; TNF/IFN stimulation 24 h) was “inhibited cytokine-inducible” and the “inhibition of constitutive shedding of CXCL16” value ([1]; unstimulated) was “not the constitutive shedding”.
